Data taken from ChEMBL document CHEMBL3885881, “DrugMatrix”.

Species: Rattus norvegicus
Test: DrugMatrix - Regimen: Daily Repeat
Assay type: toxicity, organism-based, Sprague-Dawley
Set-up: regimen Daily Repeat, gender Male, age 6-8 weeks
Conditions: in vivo, po, route oral GAVAGE, […]; for ABSOLUTE BASOPHIL / ABSOLUTE EOSINOPHIL / ABSOLUTE LYMPHOCYTE / ABSOLUTE MONOCYTE / ABSOLUTE SEGMENTED NEUTROPHIL / BASOPHIL / EOSINOPHIL / ERYTHROCYTE COUNT / HEMATOCRIT / HEMOGLOBIN / LEUKOCYTE COUNT / LYMPHOCYTE / MEAN CORPUSCULAR HEMOGLOBIN / MEAN CORPUSCULAR HEMOGLOBIN CONCENTRATION / MEAN CORPUSCULAR VOLUME / MONOCYTE / NEUTROPHIL / NUCLEATED RED BLOOD CELLS / PLATELET COUNT: tissue Blood; for ALANINE AMINOTRANSFERASE / ALBUMIN / ALKALINE PHOSPHATASE / ASPARTATE AMINOTRANSFERASE / BLOOD UREA NITROGEN / CARBON DIOXIDE / CHLORIDE / CHOLESTEROL / CREATINE PHOSPHOKINASE / CREATININE / GLUCOSE / LACTATE DEHYDROGENASE / LIPASE / PHOSPHORUS / POTASSIUM / SODIUM / TOTAL BILIRUBIN / TOTAL PROTEIN: tissue Plasma
[1] = 0 mg/kg, 72 h, dose level Control, time 3 day
[2] = 0 mg/kg, 120 h, dose level Control, time 5 day
[3] = 40 mg/kg, 72 h, dose level Low, time 3 day

SMILES: CN(C)CCCC1(c2ccc(F)cc2)OCc2cc(C#N)ccc21 (stereo not given) [CITALOPRAM]
- ABSOLUTE BASOPHIL [1]: 0 CELLS/uL
- ABSOLUTE EOSINOPHIL [1]: 41.83 CELLS/uL
- ABSOLUTE LYMPHOCYTE [1]: 8545.5 CELLS/uL
- ABSOLUTE MONOCYTE [1]: 240 CELLS/uL
- ABSOLUTE SEGMENTED NEUTROPHIL [1]: 906 CELLS/uL
- BASOPHIL [1]: 0%
- EOSINOPHIL [1]: 0.33%
- ERYTHROCYTE COUNT [1]: 5.6 x10E6/uL
- HEMATOCRIT [1]: 35.4%
- HEMOGLOBIN [1]: 13.42 G/DL
- LEUKOCYTE COUNT [1]: 9.73 x10E3/uL
- LYMPHOCYTE [1]: 87.83%
- MEAN CORPUSCULAR HEMOGLOBIN [1]: 23.98 pg
- MEAN CORPUSCULAR HEMOGLOBIN CONCENTRATION [1]: 37.92 G/DL
- MEAN CORPUSCULAR VOLUME [1]: 63.3 fL
- MONOCYTE [1]: 2.5%
- NEUTROPHIL [1]: 9.33%
- NUCLEATED RED BLOOD CELLS [1]: 0 /100WBC
- PLATELET COUNT [1]: 1032 x10E3/uL
- ALANINE AMINOTRANSFERASE [1]: 72.83 u/L
- ALBUMIN [1]: 4 G/DL
- ALKALINE PHOSPHATASE [1]: 322.83 u/L
- ASPARTATE AMINOTRANSFERASE [1]: 102.67 u/L
- BLOOD UREA NITROGEN [1]: 12 mg/dL
- CARBON DIOXIDE [1]: 34.33 mmol/L
- CHLORIDE [1]: 97.67 MEQ/L
- CHOLESTEROL [1]: 82.5 mg/dL
- CREATINE PHOSPHOKINASE [1]: 410.33 u/L
- CREATININE [1]: 0.18 mg/dL
- GLUCOSE [1]: 164.5 mg/dL
- LACTATE DEHYDROGENASE [1]: 119.5 u/L
- LIPASE [1]: 11.83 u/L
- PHOSPHORUS [1]: 9.52 mg/dL
- POTASSIUM [1]: 5.56 MEQ/L
- SODIUM [1]: 142.48 MEQ/L
- TOTAL BILIRUBIN [1]: 0.18 mg/dL
- TOTAL PROTEIN [1]: 5.77 G/DL
- ABSOLUTE BASOPHIL [2]: 0 CELLS/uL
- ABSOLUTE EOSINOPHIL [2]: 0 CELLS/uL
- ABSOLUTE LYMPHOCYTE [2]: 9065 CELLS/uL
- ABSOLUTE MONOCYTE [2]: 341.33 CELLS/uL
- ABSOLUTE SEGMENTED NEUTROPHIL [2]: 527 CELLS/uL
- BASOPHIL [2]: 0%
- EOSINOPHIL [2]: 0%
- ERYTHROCYTE COUNT [2]: 5.25 x10E6/uL
- HEMATOCRIT [2]: 34.08%
- HEMOGLOBIN [2]: 13.5 G/DL
- LEUKOCYTE COUNT [2]: 9.93 x10E3/uL
- LYMPHOCYTE [2]: 91.17%
- MEAN CORPUSCULAR HEMOGLOBIN [2]: 25.7 pg
- MEAN CORPUSCULAR HEMOGLOBIN CONCENTRATION [2]: 39.62 G/DL
- MEAN CORPUSCULAR VOLUME [2]: 64.93 fL
- MONOCYTE [2]: 3.33%
- NEUTROPHIL [2]: 5.5%
- NUCLEATED RED BLOOD CELLS [2]: 0 /100WBC
- PLATELET COUNT [2]: 1077.5 x10E3/uL
- ALANINE AMINOTRANSFERASE [2]: 57.83 u/L
- ALBUMIN [2]: 4.07 G/DL
- ALKALINE PHOSPHATASE [2]: 319.17 u/L
- ASPARTATE AMINOTRANSFERASE [2]: 83.33 u/L
- BLOOD UREA NITROGEN [2]: 13.67 mg/dL
- CARBON DIOXIDE [2]: 30.83 mmol/L
- CHLORIDE [2]: 98.33 MEQ/L
- CHOLESTEROL [2]: 64.83 mg/dL
- CREATINE PHOSPHOKINASE [2]: 263.67 u/L
- CREATININE [2]: 0.2 mg/dL
- GLUCOSE [2]: 182.83 mg/dL
- LACTATE DEHYDROGENASE [2]: 124 u/L
- LIPASE [2]: 10.5 u/L
- PHOSPHORUS [2]: 10 mg/dL
- POTASSIUM [2]: 5.78 MEQ/L
- SODIUM [2]: 142.48 MEQ/L
- TOTAL BILIRUBIN [2]: 0.2 mg/dL
- TOTAL PROTEIN [2]: 6 G/DL
- ABSOLUTE BASOPHIL [3]: 0 CELLS/uL
- ABSOLUTE EOSINOPHIL [3]: 46.33 CELLS/uL
- ABSOLUTE LYMPHOCYTE [3]: 12847 CELLS/uL
- ABSOLUTE MONOCYTE [3]: 96.67 CELLS/uL
- ABSOLUTE SEGMENTED NEUTROPHIL [3]: 810 CELLS/uL
- BASOPHIL [3]: 0%
- EOSINOPHIL [3]: 0.33%
- ERYTHROCYTE COUNT [3]: 5.4 x10E6/uL
- HEMATOCRIT [3]: 34.8%
- HEMOGLOBIN [3]: 13.67 G/DL
- LEUKOCYTE COUNT [3]: 13.8 x10E3/uL
- LYMPHOCYTE [3]: 93%
- MEAN CORPUSCULAR HEMOGLOBIN [3]: 25.3 pg
- MEAN CORPUSCULAR HEMOGLOBIN CONCENTRATION [3]: 39.27 G/DL
- MEAN CORPUSCULAR VOLUME [3]: 64.37 fL
- MONOCYTE [3]: 0.67%
- NEUTROPHIL [3]: 6%
- NUCLEATED RED BLOOD CELLS [3]: 0 /100WBC
- PLATELET COUNT [3]: 979.33 x10E3/uL
- ALANINE AMINOTRANSFERASE [3]: 61.33 u/L
- ALBUMIN [3]: 3.93 G/DL
- ALKALINE PHOSPHATASE [3]: 390.33 u/L
- ASPARTATE AMINOTRANSFERASE [3]: 85.33 u/L
- BLOOD UREA NITROGEN [3]: 9.33 mg/dL
- CARBON DIOXIDE [3]: 28 mmol/L
- CHLORIDE [3]: 101 MEQ/L
- CHOLESTEROL [3]: 69.67 mg/dL
- CREATINE PHOSPHOKINASE [3]: 135.67 u/L
- CREATININE [3]: 0.31 mg/dL
- GLUCOSE [3]: 158.67 mg/dL
- LACTATE DEHYDROGENASE [3]: 101.67 u/L
- LIPASE [3]: 14.33 u/L
- PHOSPHORUS [3]: 10.5 mg/dL
- POTASSIUM [3]: 6.13 MEQ/L
- SODIUM [3]: 144.7 MEQ/L
- TOTAL BILIRUBIN [3]: 0.17 mg/dL
